Like-named read-outs stand apart in the source and are kept apart here.
What was measured:
[1] = biological target: T1, Full length wild-type cereblon CRBN (Homo sapiens, UniProt Q96SW2); assay: Fluorescence polarization (FP) assay indicating cereblon binding
T1 construct: Full length wild-type cereblon CRBN (80.0 nM, 10 μL) was incubated in assay buffer
Protocol: Compound activity was monitored in a fluorescence polarization (FP) homogeneous assay using 1-[5-({2-[2-(2-{[2-(2,6-dioxopiperidin-3-yl)-1,3-dioxo-2,3-dihydro-1H-isoindol-4-yl]oxy}acetamido)ethoxy]ethyl}carbamoyl)pentyl]-3,3-dimethyl-2-[(1E,3E)-5-[(2E)-1,3,3-trimethyl-5-sulfo-2,3-dihydro-1H-indol-2-ylidene]penta-1,3-dien-1-yl]-3H-indol-1-ium-5-sulfonate as a fluorescent probe. Unless otherwise stated, all reagents were purchased from Sigma Aldrich. Enzymatic reactions were conducted in Perkin-Elmer Black 384 well ProxiPlate Plus (catalogue no. 6008269) in 10 μL total volume. Full length wild-type cereblon CRBN (80.0 nM, 10 μL) was incubated in assay buffer containing 20 mM HEPES (pH 8.0), […], 0.5 mM TCEP and 0.05% Tween 20 in the presence or absence of compound (300 nL). Inhibitors were stored as 10 mM DMSO stocks in an inert environment (low humidity, dark, low oxygen, room temperature) using the Storage Pod System. Compounds and DMSO were dispensed using the Echo E5XX (Labcyte Inc. USA) to give concentrations from 300 to 0.937 or 3000 to 9.3 nM in a 12 data point curve. […] Following incubation at room temperature for 30 min, the assay was initiated by dispensing the probe to a final concentration of 5 nM (2.5 nL of a 20 μM stock) using the Echo E5XX. FP was measured after a period of 12 hours using a Pherastar plate reader (BMG Labtech, Germany) exciting at 590 nm and measuring the amount of parallel and perpendicular light at 675 nm. The FP signal was subsequently normalized to the no-compound control (i.e., DMSO). Analysis and IC50 values were derived using Dotmatics (Dotmatics UK) software.

[2] = biological target: GSPT1 (Homo sapiens, UniProt P15170+Q96SW2); assay: GSPT1 degradation immunofluorescence assay in CAL-51 cells; assay type: cell-based; set-up: endogenous in cells; host or cells: CAL-51 (DSMZ ACC302); conditions: 6 hours
GSPT1, sequence (P15170 whole entry): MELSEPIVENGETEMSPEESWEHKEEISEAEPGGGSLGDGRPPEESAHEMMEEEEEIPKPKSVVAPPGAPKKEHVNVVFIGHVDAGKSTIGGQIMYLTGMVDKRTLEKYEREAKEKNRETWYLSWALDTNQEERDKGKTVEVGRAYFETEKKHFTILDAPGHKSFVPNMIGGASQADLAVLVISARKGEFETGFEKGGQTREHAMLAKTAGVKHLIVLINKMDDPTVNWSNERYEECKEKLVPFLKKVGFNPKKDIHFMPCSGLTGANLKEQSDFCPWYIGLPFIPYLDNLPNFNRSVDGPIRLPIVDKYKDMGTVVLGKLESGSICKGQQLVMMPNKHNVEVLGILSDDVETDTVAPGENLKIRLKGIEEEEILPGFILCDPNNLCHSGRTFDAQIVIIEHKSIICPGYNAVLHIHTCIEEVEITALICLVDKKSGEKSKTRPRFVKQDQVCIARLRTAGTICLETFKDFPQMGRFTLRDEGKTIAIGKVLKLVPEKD
GSPT1, sequence (Q96SW2 whole entry): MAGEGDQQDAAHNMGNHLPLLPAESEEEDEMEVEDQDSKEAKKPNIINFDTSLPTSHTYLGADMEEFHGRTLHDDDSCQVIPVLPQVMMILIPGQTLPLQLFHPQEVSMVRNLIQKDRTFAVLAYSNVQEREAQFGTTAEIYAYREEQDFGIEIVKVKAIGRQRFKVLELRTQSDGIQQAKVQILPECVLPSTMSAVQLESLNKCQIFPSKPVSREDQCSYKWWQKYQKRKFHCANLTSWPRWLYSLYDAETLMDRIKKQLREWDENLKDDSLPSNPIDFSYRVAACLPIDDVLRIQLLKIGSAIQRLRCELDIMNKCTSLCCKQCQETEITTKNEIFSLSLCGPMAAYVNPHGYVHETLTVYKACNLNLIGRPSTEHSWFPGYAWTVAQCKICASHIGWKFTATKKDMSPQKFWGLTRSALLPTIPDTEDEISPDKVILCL
GSPT1, sequence (Q16531 whole entry partner): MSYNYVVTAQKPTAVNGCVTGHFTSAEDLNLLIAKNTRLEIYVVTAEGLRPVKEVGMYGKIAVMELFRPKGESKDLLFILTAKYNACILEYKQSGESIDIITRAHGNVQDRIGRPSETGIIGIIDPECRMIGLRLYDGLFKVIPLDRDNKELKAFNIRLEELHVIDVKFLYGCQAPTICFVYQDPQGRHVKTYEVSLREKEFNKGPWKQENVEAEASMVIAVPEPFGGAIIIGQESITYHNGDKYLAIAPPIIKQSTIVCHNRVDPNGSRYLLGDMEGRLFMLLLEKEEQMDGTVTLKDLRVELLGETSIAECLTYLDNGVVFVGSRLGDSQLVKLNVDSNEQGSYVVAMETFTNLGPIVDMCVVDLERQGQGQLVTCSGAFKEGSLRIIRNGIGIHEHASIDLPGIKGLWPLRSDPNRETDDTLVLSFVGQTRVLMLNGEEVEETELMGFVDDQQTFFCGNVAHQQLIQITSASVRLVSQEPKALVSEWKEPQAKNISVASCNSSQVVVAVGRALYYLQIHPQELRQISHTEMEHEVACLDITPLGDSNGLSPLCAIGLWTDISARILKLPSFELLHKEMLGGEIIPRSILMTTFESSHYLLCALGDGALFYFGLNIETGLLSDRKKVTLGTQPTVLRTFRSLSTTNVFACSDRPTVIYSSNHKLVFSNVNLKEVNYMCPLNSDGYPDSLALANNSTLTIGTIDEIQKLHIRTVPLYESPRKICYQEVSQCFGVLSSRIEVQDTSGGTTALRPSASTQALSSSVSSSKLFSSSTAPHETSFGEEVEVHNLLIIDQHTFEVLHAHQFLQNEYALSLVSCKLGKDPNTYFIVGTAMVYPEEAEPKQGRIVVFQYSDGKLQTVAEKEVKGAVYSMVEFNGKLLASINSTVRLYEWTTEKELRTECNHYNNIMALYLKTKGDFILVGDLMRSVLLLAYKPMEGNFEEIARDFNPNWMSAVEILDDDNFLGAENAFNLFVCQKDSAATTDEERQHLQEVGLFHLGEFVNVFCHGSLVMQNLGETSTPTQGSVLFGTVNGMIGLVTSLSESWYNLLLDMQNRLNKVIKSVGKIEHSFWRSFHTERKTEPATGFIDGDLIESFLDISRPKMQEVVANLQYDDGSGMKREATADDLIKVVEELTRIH
Protocol: CAL-51 cells were purchased from DSMZ (cat. Number ACC302), sub-cultured in 90% Dulbecco's MEM (4.5 g/L glucose, Gibco 11965)+10% heat inactivated FBS (BioConcept, 2-01F1361) and incubated at 37° C., 5% CO2. For the assay, imaging microtiterplate Cell Carrier 96 Ultra (Perkin Elmer 6055302) were pre-coated with Fibronectin (Sigma F085, 30 μl at 0.2 μg/ml) in PBS (100 μl, Gibco 14190) for 45 min at room temperature, rinsed with PBS and CAL-51 cells (30K cells/well) were plated and let to adhere overnight. Cells were treated with compounds typically using a serial dilution ranging from 30 μM to 0.1 nM for 6 hours. Compounds were stored at 10 mM DMSO stocks. Vehicle (DMSO), positive (CC-885, 10 μM) and rescue controls (positive control plus 0.2 μM bortezomib) were also included at this stage. Cells were subsequently rinsed with PBS and fixed in 10% Formalin solution (50 μl, Sigma HT5011)) for 20 mins at room temperature. Following three consecutive PBS washes (100 μl), cells were permeabilized in 0.1% Triton X-100 in PBS (Sigma 93443, 50 μl) for 15 mins at room temperature. Following three further PBS washes, 50 μl blocking buffer (1% BSA, Sigma A4503, in PBS) was added for 45 min for signal-to-noise reduction. Primary antibody (human GSPT1, Sigma HPA052488) was diluted in blocking buffer (dil. 1/300, 35 μl/well) and incubated with the cells overnight at 4° C. After three PBS washes, Alexa-fluor 488 coupled secondary antibodies (Invitrogen, A32731, dil. 1/1000), Alexa-fluor 647-Phalloidin (Invitrogen, A22287, dil. 1/200) and DAPI (Thermo, #62248, dil. 1/1000) were diluted in blocking buffer and incubated with the samples for 2 hours at room temperature. After three final PBS washes, samples were conserved in 100 μl PBS in the dark, until measurement. Image acquisition was performed on the Operetta High-Content Imager (Perkin-Elmer). Fluorescence intensity of Alexa-Fluor 488 (GSPT1), Alexa-Fluor 647 (Actin) and DAPI (Nucleus) were measured. For the determination of GSPT1 DC50 values, a custom algorithm implemented in the PerkinElmer image analysis software Harmony-Acapella® was developed. After user-defined setting of adjustment parameters, the analysis was run identically without human intervention for all image fields. DAPI staining of the nuclei was used to determine the location of cells using standard nuclei detection modules. Segmentation artifacts were removed by threshold-based filters for area, roundness and intensity. The outline of the cells was determined analogously from the sum of the normalized, smoothed DAPI and Actin channel, starting from each nucleus. The Alexa-Fluor 488 (GSPT1) signal intensity in each cell was finally measured, in order to obtain a Mean intensity per cell. GSPT1 degradation (DC50) was calculated after normalization to controls and data import in CDD vault Database, using non-linear regression.

[3] = bound stated, read-out: IC50 value
[4] = Table 4, read-out: Activity for GSPT1 degradation, Code (DC50)
[5] = Table 5B, read-out: Activity for GSPT1 degradation, Code (DC50)

T1 sequence (Q96SW2 whole entry): as the sequence (Q96SW2 whole entry) above

Which IC50 [1, 3] does the source give for `CN(C)CC(=O)Oc1cccc(CNC(=O)NCc2ccc3c(c2)C(=O)N(C2CCC(=O)NC2=O)C3)c1` (stereo not shown) [Compound 136] here?
Its IC50 is < 1100 nM.

And the DC50 [2, 4]?
The DC50 was > 300 nM.

`Cc1c(Cl)cc(NC(=O)NCc2ccc3c(c2)C(=O)N(C2CCC(=O)NC2=O)C3)cc1CN1CC2CC1CO2` (stereo not shown) [Compound 139] was tested. Which IC50 [1, 3] did it give?
Its IC50 is < 1100 nM.

What about the DC50 [2, 4] of the same compound?
The DC50 was ≤ 100 nM.

`CC(C)(C)c1ccc(NC(=O)OCc2cc(F)c3c(c2)C(=O)N(C2CCC(=O)NC2=O)C3)cn1` (stereo not shown) [Compound 509] was tested. Which IC50 ([1]; Table 3B, read-out: rFP IC50) did it give?
Its IC50 is 1200 to 1900 nM.

What about the DC50 [2, 5] of the same compound?
Its DC50 is ≤ 30 nM.

Which IC50 ([1]; Table 3B, read-out: rFP IC50) does the source give for `CC(C)(C)c1ccc(NC(=O)OCc2cc(F)c3c(c2)C(=O)N(C2CCC(=O)NC2=O)C3)cc1` (stereo not shown) [Compound 510] here?
Its IC50 is > 1900 nM.

What about the DC50 [2, 5] of the same compound?
The DC50 was 30 to 300 nM.

Which IC50 ([1]; Table 3B, read-out: rFP IC50) does the source give for `O=C1CCC(N2Cc3c(F)cc(COC(=O)Nc4ccc(F)c(OC(F)(F)F)c4)cc3C2=O)C(=O)N1` (stereo not shown) [Compound 514] here?
The IC50 was > 1900 nM.

And the DC50 [2, 5]?
Its DC50 is 30 to 300 nM.

For `CC1(C)COc2cc(NC(=O)OCc3cc(F)c4c(c3)C(=O)N(C3CCC(=O)NC3=O)C4)ccc21` (stereo not shown) [Compound 517], which IC50 ([1]; Table 3B, read-out: rFP IC50) is on record?
Its IC50 is ≤ 600 nM.

What about the DC50 [2, 5] of the same compound?
The DC50 was ≤ 30 nM.

`Cc1cc(NC(=O)OCc2cc(F)c3c(c2)C(=O)N(C2CCC(=O)NC2=O)C3)cnc1-c1ccccc1` (stereo not shown) [Compound 520] was tested. Which IC50 ([1]; Table 3B, read-out: rFP IC50) did it give?
Its IC50 is 600 to 1200 nM.

And the DC50 [2, 5]?
Its DC50 is ≤ 30 nM.

What does the source list for `O=C1CCC(N2Cc3c(F)cc(COC(=O)Nc4ccc(C5CCC5)cc4)cc3C2=O)C(=O)N1` (stereo not shown) [Compound 522]?
IC50 ([1]; Table 3B, read-out: rFP IC50): > 1900 nM; DC50 [2, 5]: ≤ 30 nM

How did the IC50 ([1]; Table 3B, read-out: rFP IC50) turn out when `C[C@@H]1CCCN1c1ccc(NC(=O)OCc2cc(F)c3c(c2)C(=O)N(C2CCC(=O)NC2=O)C3)cn1` (stereo partly shown) [Compound 523] was run?
Its IC50 is 600 to 1200 nM.

What about the DC50 [2, 5] of the same compound?
The DC50 was ≤ 30 nM.

With `Cc1cc(Cl)cc(NC(=O)OCc2cc(F)c3c(c2)C(=O)N(C2CCC(=O)NC2=O)C3)c1` (stereo not shown) [Compound 527] as the compound, how does the IC50 ([1]; Table 3B, read-out: rFP IC50) read?
The IC50 was 1200 to 1900 nM.

What about the DC50 [2, 5] of the same compound?
The DC50 was 30 to 300 nM.

With `O=C1CCC(N2Cc3c(F)cc(COC(=O)Nc4ccc(-c5ccccc5F)c(F)c4)cc3C2=O)C(=O)N1` (stereo not shown) [Compound 529] as the compound, how does the IC50 ([1]; Table 3B, read-out: rFP IC50) read?
The IC50 was > 1900 nM.

And the DC50 [2, 5]?
Its DC50 is ≤ 30 nM.

What does the source list for `O=C1CCC(N2Cc3c(F)cc(COC(=O)Nc4cc(F)c(-c5ccccc5)c(F)c4)cc3C2=O)C(=O)N1` (stereo not shown) [Compound 530]?
IC50 ([1]; Table 3B, read-out: rFP IC50): > 1900 nM; DC50 [2, 5]: 30 to 300 nM

For `O=C1CCC(N2Cc3c(F)cc(COC(=O)Nc4ccc(F)c(Cl)c4)cc3C2=O)C(=O)N1` (stereo not shown) [Compound 532], which IC50 ([1]; Table 3B, read-out: rFP IC50) is on record?
The IC50 was > 1900 nM.

What about the DC50 [2, 5] of the same compound?
Its DC50 is 30 to 300 nM.

With `O=C1CCC(N2Cc3c(F)cc(COC(=O)Nc4cc(F)cc(Cl)c4)cc3C2=O)C(=O)N1` (stereo not shown) [Compound 533] as the compound, how does the IC50 ([1]; Table 3B, read-out: rFP IC50) read?
The IC50 was > 1900 nM.

And the DC50 [2, 5]?
Its DC50 is 30 to 300 nM.

How did the IC50 ([1]; Table 3B, read-out: rFP IC50) turn out when `COc1cc(COC(=O)Nc2ccc(F)c(OC(F)(F)F)c2)cc2c1CN(C1CCC(=O)NC1=O)C2=O` (stereo not shown) [Compound 539] was run?
The IC50 was 1200 to 1900 nM.

And the DC50 [2, 5]?
The DC50 was ≤ 30 nM.

What does the source list for `COc1cc(COC(=O)Nc2cc(F)cc(OC(F)F)c2)cc2c1CN(C1CCC(=O)NC1=O)C2=O` (stereo not shown) [Compound 547]?
IC50 ([1]; Table 3B, read-out: rFP IC50): 600 to 1200 nM; DC50 [2, 5]: ≤ 30 nM

Which results are given for `COc1cc(COC(=O)Nc2ccc(C3CCC3)cc2)cc2c1CN(C1CCC(=O)NC1=O)C2=O` (stereo not shown) [Compound 557]?
IC50 ([1]; Table 3B, read-out: rFP IC50): ≤ 600 nM; DC50 [2, 5]: ≤ 30 nM

Which IC50 ([1]; Table 3B, read-out: rFP IC50) does the source give for `O=C1CCC(N2Cc3c(F)cc(COC(=O)Nc4cc(F)c(F)c(Cl)c4)cc3C2=O)C(=O)N1` (stereo not shown) [Compound 561] here?
Its IC50 is > 1900 nM.

And the DC50 [2, 5]?
The DC50 was ≤ 30 nM.

With `COc1cc(COC(=O)Nc2ccc(N3CCC[C@@H]3C)nc2)cc2c1CN(C1CCC(=O)NC1=O)C2=O` (stereo partly shown) [Compound 562] as the compound, how does the IC50 ([1]; Table 3B, read-out: rFP IC50) read?
The IC50 was ≤ 600 nM.

And the DC50 [2, 5]?
The DC50 was 30 to 300 nM.

For `COc1cc(COC(=O)Nc2cc(OC(F)(F)F)ccc2F)cc2c1CN(C1CCC(=O)NC1=O)C2=O` (stereo not shown) [Compound 566], which DC50 [2, 5] is on record?
The DC50 was > 300 nM.

`COc1cc(COC(=O)Nc2cc(C)cc(F)c2)cc2c1CN(C1CCC(=O)NC1=O)C2=O` (stereo not shown) [Compound 567] was tested. Which DC50 [2, 5] did it give?
The DC50 was ≤ 30 nM.

For `COc1c(COC(=O)Nc2ccc(C)c(Cl)c2)ccc2c1C(=O)N(C1CCC(=O)NC1=O)C2` (stereo not shown) [Compound 570], which IC50 ([1]; Table 3B, read-out: rFP IC50) is on record?
Its IC50 is > 1900 nM.

And the DC50 [2, 5]?
Its DC50 is > 300 nM.

Which results are given for `Cc1ccc(NC(=O)OCc2ccc3c(c2Cl)C(=O)N(C2CCC(=O)NC2=O)C3)cc1Cl` (stereo not shown) [Compound 572]?
IC50 ([1]; Table 3B, read-out: rFP IC50): > 1900 nM; DC50 [2, 5]: > 300 nM

`Cc1ccc(NC(=O)OCc2ccc3c(c2C)C(=O)N(C2CCC(=O)NC2=O)C3)cc1Cl` (stereo not shown) [Compound 573] was tested. Which IC50 ([1]; Table 3B, read-out: rFP IC50) did it give?
Its IC50 is ≤ 600 nM.

And the DC50 [2, 5]?
The DC50 was > 300 nM.

From patent US20240261274A1, “TREATMENT OF MYC-DRIVEN CANCERS WITH GSPT1 DEGRADERS” (MONTE ROSA THERAPEUTICS, INC., priority 2021, published 2024)
